The structures appear in SMILES notation.

In general, Ki refers to a measure of affinity in units of concentration, obtained from inhibition or displacement.

In the experiment the target is T1, GST-tagged-Wee1 kinase (Homo sapiens, UniProt P30291).
T1 construct: purchased Carnabio (Carna Biosciences) 05-177
T1 sequence (P30291 whole entry): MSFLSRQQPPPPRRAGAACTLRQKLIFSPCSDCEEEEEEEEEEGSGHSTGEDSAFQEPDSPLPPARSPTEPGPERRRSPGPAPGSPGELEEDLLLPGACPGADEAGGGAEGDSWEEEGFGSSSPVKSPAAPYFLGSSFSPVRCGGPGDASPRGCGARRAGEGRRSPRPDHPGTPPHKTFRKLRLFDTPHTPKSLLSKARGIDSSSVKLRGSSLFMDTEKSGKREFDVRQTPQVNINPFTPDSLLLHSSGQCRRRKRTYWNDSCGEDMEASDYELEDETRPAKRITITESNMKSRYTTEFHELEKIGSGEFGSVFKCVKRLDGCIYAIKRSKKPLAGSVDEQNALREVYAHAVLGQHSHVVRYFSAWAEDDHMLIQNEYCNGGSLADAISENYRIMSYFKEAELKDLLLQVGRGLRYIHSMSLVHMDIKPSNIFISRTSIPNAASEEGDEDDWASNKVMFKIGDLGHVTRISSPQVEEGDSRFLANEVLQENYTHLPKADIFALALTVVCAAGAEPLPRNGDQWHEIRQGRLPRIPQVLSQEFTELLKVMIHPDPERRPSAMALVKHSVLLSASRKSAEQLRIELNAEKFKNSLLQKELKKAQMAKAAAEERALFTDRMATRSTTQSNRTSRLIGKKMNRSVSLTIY
Put plainly: Wee1 time-resolved fluorescence equilibrium binding assay (displacement of Oregon Green-labeled ATP-competitive kinase probe). As to conditions: read-out: Wee-1 inhibition (Ki). In outline: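 Time-resolved fluorescence equilibrium binding with GST-Wee1, measuring displacement of a rapidly reversible Oregon Green-labelled ATP-competitive probe by competitive inhibitors; values reported as Ki.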
Take `O=c1c2cnc(Nc3ccc(N4CCN(Cc5cccc(Cl)c5)CC4)cc3)nc2n2ccnc2n1-c1ccccc1Cl` [Example 63, 2-({4-[4-(3-chlorobenzyl)piperazin-1-yl]phenyl}amino)-6-(2-chlorophenyl)imidazo[1,2-a]pyrimido[5,4-e]pyrimidin-5(6H)-one]: the inhibition constant Ki was in the range of 0.01 to 0.1 µM.

Turning to `Cc1ccc2nc(CCc3ccc(Nc4ncc5c(=O)n(-c6ccccc6Cl)c6nccn6c5n4)cc3)ccc2c1` [Example 361, 6-(2-chlorophenyl)-2-({4-[2-(6-methylquinolin-2-yl)ethyl]phenyl}amino)imidazo[1,2-a]pyrimido[5,4-e]pyrimidin-5(6H)-one], the inhibitory constant (Ki) is 0.01 to 0.1 µM.

On to `CN1CCC2(CC1)CCN(c1ccc(Nc3ncc4c(=O)n(-c5c(Cl)cccc5Cl)c5nccn5c4n3)cc1)CC2` [Example 323, 6-(2,6-dichlorophenyl)-2-{[4-(9-methyl-3,9-diazaspiro[5.5]undec-3-yl)phenyl]amino}imidazo[1,2-a]pyrimido[5,4-e]pyrimidin-5(6H)-one], for which the inhibitory constant (Ki) was below 0.01 µM.

For `Cc1cc(Nc2ncc3c(=O)n(-c4ccccc4Cl)c4nccn4c3n2)ccc1N1CCN(C)CC1` [Example 22, 6-(2-chlorophenyl)-2-{[3-methyl-4-(4-methylpiperazin-1-yl)phenyl]amino}imidazo[1,2-a]pyrimido[5,4-e]pyrimidin-5(6H)-one], the Ki is below 0.01 µM.

For `CC(=O)N1CCc2ccc(Nc3ncc4c(=O)n(-c5ccccc5Cl)c5nccn5c4n3)cc21` [Example 12, 2-[(1-acetyl-2,3-dihydro-1H-indol-6-yl)amino]-6-(2-chlorophenyl)imidazo[1,2-a]pyrimido[5,4-e]pyrimidin-5(6H)-one], the Ki is below 0.01 µM.

Take `COc1cc(N2CCN(C)CC2)ccc1Nc1ncc2c(=O)n(-c3ccccc3Cl)c3nccn3c2n1` [Example 17, 6-(2-chlorophenyl)-2-{[2-methoxy-4-(4-methylpiperazin-1-yl)phenyl]amino}imidazo[1,2-a]pyrimido[5,4-e]pyrimidin-5(6H)-one]: the Ki is above 0.1 µM.

In the case of `CN1CCC(c2ccc(Nc3ncc4c(=O)n(-c5c(F)cccc5Cl)c5nccn5c4n3)cc2)CC1` [Example 309, 6-(2-chloro-6-fluorophenyl)-2-{[4-(1-methylpiperidin-4-yl)phenyl]amino}imidazo[1,2-a]pyrimido[5,4-e]pyrimidin-5(6H)-one], the inhibition constant (Ki) was below 0.01 µM.

Consider `CC1(C)CN(CCF)Cc2cc(Nc3ncc4c(=O)n(-c5c(Cl)cccc5Cl)c5nccn5c4n3)ccc21` [Example 302, 6-(2,6-dichlorophenyl)-2-{[2-(2-fluoroethyl)-4,4-dimethyl-1,2,3,4-tetrahydroisoquinolin-7-yl]amino}imidazo[1,2-a]pyrimido[5,4-e]pyrimidin-5(6H)-one], for which the Ki is below 0.01 µM.

Take `O=c1c2cnc(Nc3ccc(N4CCN(c5ccc(F)cc5)CC4)cc3)nc2n2ccnc2n1-c1ccccc1Cl` [Example 254, 6-(2-chlorophenyl)-2-({4-[4-(4-fluorophenyl)piperazin-1-yl]phenyl}amino)imidazo[1,2-a]pyrimido[5,4-e]pyrimidin-5(6H)-one]: the Ki lay within 0.01 to 0.1 µM.

As for `O=c1c2cnc(Nc3cc(Cl)c(N4CCNCC4)c(C(F)(F)F)c3)nc2n2ccnc2n1-c1ccccc1Cl` [Example 354, 6-(2-chlorophenyl)-2-{[3-chloro-4-(piperazin-1-yl)-5-(trifluoromethyl)phenyl]amino}imidazo[1,2-a]pyrimido[5,4-e]pyrimidin-5(6H)-one], the Ki was above 0.1 µM.

Consider `O=c1c2cnc(Nc3ccc4c(c3)CNCC4)nc2n2ccnc2n1-c1c(Cl)cccc1Cl` [Example 111, 6-(2,6-dichlorophenyl)-2-(1,2,3,4-tetrahydroisoquinolin-7-ylamino)imidazo[1,2-a]pyrimido[5,4-e]pyrimidin-5(6H)-one], for which the Ki is below 0.01 µM.

As to `O=c1c2cnc(Nc3cccc(OCCCN4CCCCC4)c3)nc2n2ccnc2n1-c1ccccc1Cl` [Example 83, 6-(2-chlorophenyl)-2-({3-[3-(piperidin-1-yl)propoxy]phenyl}amino)imidazo[1,2-a]pyrimido[5,4-e]pyrimidin-5(6H)-one], the Ki fell in the range of 0.01 to 0.1 µM.

These data come from patent publication US8710065B2, “Tricyclic inhibitors of kinases” (AbbVie Inc., priority 2011, dated 2014).
